Experimental data from patent publication US12128114B2, “177Lu-DOTA-HYNIC-iPSMA as a therapeutic radiopharmaceutical targeting prostate-specific membrane antigen” (INSTITUTO NACIONAL DE INVESTIGACIONES NUCLEARES, priority 2018, dated 2024).

Assays:
protein PSMA = biological target: T1, protein PSMA (Homo sapiens, UniProt Q04609); assay: Saturation studies in cancer cells positive for the protein PSMA (LNCaP); assay type: binding
T1 construct: saturation studies in cancer cells positive for the protein PSMA (LNCaP); endogenous in cells; host or cells: LNCaP
T1 sequence (Q04609 whole entry): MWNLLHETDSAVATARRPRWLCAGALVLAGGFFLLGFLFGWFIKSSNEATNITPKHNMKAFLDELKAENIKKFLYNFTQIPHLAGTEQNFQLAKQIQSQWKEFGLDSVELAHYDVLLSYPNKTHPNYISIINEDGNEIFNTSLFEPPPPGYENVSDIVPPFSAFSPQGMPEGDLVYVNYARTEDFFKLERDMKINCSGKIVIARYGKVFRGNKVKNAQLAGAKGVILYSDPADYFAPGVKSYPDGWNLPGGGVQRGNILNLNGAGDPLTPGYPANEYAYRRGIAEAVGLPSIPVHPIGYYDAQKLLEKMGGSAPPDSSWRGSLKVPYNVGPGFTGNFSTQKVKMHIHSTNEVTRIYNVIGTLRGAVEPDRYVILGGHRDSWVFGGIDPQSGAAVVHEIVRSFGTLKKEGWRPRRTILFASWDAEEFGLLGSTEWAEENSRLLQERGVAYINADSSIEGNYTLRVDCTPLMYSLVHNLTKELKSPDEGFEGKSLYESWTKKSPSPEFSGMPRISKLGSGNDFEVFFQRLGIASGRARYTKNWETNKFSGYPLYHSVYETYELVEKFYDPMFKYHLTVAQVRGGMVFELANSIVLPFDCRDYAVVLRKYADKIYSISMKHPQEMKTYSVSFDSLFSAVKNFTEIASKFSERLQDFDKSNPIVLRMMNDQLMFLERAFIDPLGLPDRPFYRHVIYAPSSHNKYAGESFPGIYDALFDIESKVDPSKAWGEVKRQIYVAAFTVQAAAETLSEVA

[1] = Stability of the radiopharmaceutical post-labelling (radiochemical purity); assay type: physicochemical; conditions: for more than 7 days post-labelling
Experimental: After reconstitution in 1.1 mL sodium acetate 1 M buffer solution pH 5.0 containing the sterile and pyrogen-free solution of lutetium-177 chloride (^177LuCl3) and incubation in a dry bath at 95° C. for 30 minutes, said formulation gave a clear, aqueous solution of the compound to be patented ^177Lu-DOTA-HYNIC-iPSMA (FIG. 1) with a radiochemical purity of more than 98%, as determined by reverse-phase HPLC, which presents the radio-chromatogram shown in FIG. 3.
(§1) The radiopharmaceutical remains stable, with a radiochemical purity of more than 98% for more than 7 days post-labelling. In vitro stability tests in human serum show a serum protein binding of 6.5±1.8% and a high radiochemical stability (>98%).

[2] = In vitro stability tests in human serum; assay type: in vitro ADME
Excerpt: as §1

[3] = Toxicity in balb-C laboratory mice; assay type: in vivo; conditions: dose of 40 mg/kg
LNCaP-induced tumors = assay: Biodistribution assays in nude mice with LNCaP-induced tumors; assay type: in vivo
[4] = Biokinetics and dosimetry in healthy subjects (whole-body images, OLINDA/EXM); assay type: in vivo, human
Experimental: To determine the biokinetics and dosimetry for the radiopharmaceutical, whole-body images were acquired for five healthy subjects at 20 mins and 6, 24, 48 and 120 h post-administration of ^177Lu-DOTA-HYNIC-iPSMA (185 MBq). The sequence of images was used to extrapolate the time-activity curves in each organ to adjust the biokinetic model and calculate the total number of disintegrations (N) that occurred in the source regions. The values of N were used in the OLINDA/EXM code to calculate the internal doses of radiation. […] Uptake and excretion is mainly renal, with lower hepatic uptake and high uptake in the […], salivary, and lachrymal glands. The average doses absorbed were 0.23, 0.28, 0.88, and 1.17 mGy/MBq for the spleen, liver, kidney, and salivary glands, respectively.

[5] = test system: metastatic prostate cancer lesions; assay: Radiotherapeutic potential in prostate cancer patients (68Ga-PSMA-11 PET/CT and serum PSA); assay type: in vivo, human
Experimental: To evaluate the radiotherapeutic potential, between one and four cycles of ^177Lu-DOTA-HYNIC-iPSMA (3.7 or 7.4 GBq) were administered to 11 patients (mean age: 66 years; range: 45-86) every 8-10 weeks. The response was evaluated using images with ^68Ga-PSMA-11 PET/CT (radiopharmaceutical with a proven affinity in clinical practice and a high-resolution technique for the specific detection of metastatic prostate cancer lesions) and determining serum prostate-specific antigen (PSA) levels before and after treatment.

prostate cancer = conditions: clinical studies, literature; cited from earlier work

O=C(O)CCC(NC(=O)NC(CCCCNC(=O)C(Cc1ccc2ccccc2c1)NC(=O)c1ccc(NNC(=O)CN2CCN3CCN4CCN(CC2)CC(=O)[O][Lu]([O]C(=O)C3)[O]C(=O)C4)nc1)C(=O)O)C(=O)O (centres unmarked) [177Lu-DOTA-HYNIC-iPSMA]
Kd (protein PSMA): 6.33 ± 2.69 nM

O=C(O)CCC(NC(=O)NC(CCCCNC(=O)C(Cc1ccc2ccccc2c1)NC(=O)c1ccc(NNC(=O)CN2CCN3CCN4CCN(CC2)CC(=O)[O][177Lu]([O]C(=O)C3)[O]C(=O)C4)nc1)C(=O)O)C(=O)O (centres unmarked) [177Lu-DOTA-HYNIC-iPSMA]
radiochemical purity (stability post-labelling) [1]: more than 98%
radiochemical stability [2]: more than 98%
serum protein binding [2]: 6.5±1.8%
maximum number of binding sites (Bmax) (protein PSMA): 5.89 ± 0.47 nM
toxicity or adverse effects [3]: did not present toxicity or adverse effects
elimination pathway (LNCaP-induced tumors): mainly renal
uptake in tumors, % of the activity administered per gram of tissue (LNCaP-induced tumors): 9.74±1.13 % ID/g
average dose absorbed, kidney ([4]; healthy subjects, kidney): 0.88 mGy/MBq
average dose absorbed, liver ([4]; healthy subjects, liver): 0.28 mGy/MBq
average dose absorbed, salivary glands ([4]; healthy subjects, salivary glands): 1.17 mGy/MBq
average dose absorbed, spleen ([4]; healthy subjects, spleen): 0.23 mGy/MBq
uptake and excretion ([4]; healthy volunteers): mainly renal
half life, second slow component (T1/2γ) ([4]; healthy volunteers, 185 MBq, ln 2/0.008): 79.6 h
half life, first slow component (T1/2β) ([4]; healthy volunteers, 185 MBq, ln 2/0.075): 9.2 h
half life, fast component (T1/2α) ([4]; healthy volunteers, 185 MBq, ln 2/0.614): 1.1 h
patients exhibiting a reduction in PSA ([5]; 11 patients, one to four cycles of 3.7 or 7.4 GBq every 8-10 weeks): Around 60%
patients with a reduction in the number and size of metastatic lesions and/or uptake intensity, by imaging ([5]; 11 patients, one to four cycles of 3.7 or 7.4 GBq, 68Ga-PSMA-11 PET/CT): 70%
metastatic lesion sites on 68Ga-PSMA-11 PET follow-up ([5]; one patient, three cycles of treatment (FIG. 6)): decrease in size and number

O=C([O-])CN1CCN(CC(=O)[O-])CCN(CC(=O)NCC2CCC(C(=O)N[C@@H](Cc3ccc4ccccc4c3)C(=O)NCCCC[C@H](NC(=O)N[C@@H](CCC(=O)O)C(=O)O)C(=O)O)CC2)CCN(CC(=O)[O-])CC1.[177Lu+3] (some centres unmarked) [Lu-PSMA-617]
side-effects (prostate cancer): no severe side-effects
